PubChem BioAssay AID493126 (Sanford-Burnham Center for Chemical Genomics, 2011)
Calls of active or inactive are those of the source. No rule for the calls is given here.

Biological target: Alkaline phosphatase, germ cell type (Homo sapiens) (UniProt P10696)
Assay: PLAP enzyme activity modulators, SAR follow-up, selectivity assay for human IAP activator project, biochemical (AID 493126)
Conditions: purified PLAP enzyme, counter-screen

Sequence of Alkaline phosphatase, germ cell type (Homo sapiens) (P10696 whole entry, looked up): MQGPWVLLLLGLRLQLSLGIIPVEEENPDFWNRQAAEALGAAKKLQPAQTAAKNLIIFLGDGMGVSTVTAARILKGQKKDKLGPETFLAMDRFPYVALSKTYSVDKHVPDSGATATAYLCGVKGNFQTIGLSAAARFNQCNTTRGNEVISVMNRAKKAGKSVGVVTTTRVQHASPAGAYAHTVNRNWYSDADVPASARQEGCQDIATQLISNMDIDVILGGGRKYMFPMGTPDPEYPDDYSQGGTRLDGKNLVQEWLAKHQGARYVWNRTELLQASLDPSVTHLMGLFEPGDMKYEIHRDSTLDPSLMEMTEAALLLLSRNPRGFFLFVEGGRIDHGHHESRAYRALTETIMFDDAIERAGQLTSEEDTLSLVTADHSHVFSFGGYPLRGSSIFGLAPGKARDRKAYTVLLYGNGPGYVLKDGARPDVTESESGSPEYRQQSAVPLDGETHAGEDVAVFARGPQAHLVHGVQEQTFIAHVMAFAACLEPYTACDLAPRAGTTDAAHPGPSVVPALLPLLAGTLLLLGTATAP

| Compound | IC50 (inhibition of PLAP activity) |
| --- | --- |
| Cc1ccc(O)c(C=NNC(=O)c2[nH]ncc2Br)c1 | 14.6 µM |
| CCOc1cccc(C=NNC(=O)c2cc(C3CC3)[nH]n2)c1O | 7.02 µM |
| COc1cccc(C=NNC(=O)C2=NNC(=O)C2C)c1O (stereo unspecified) | 8.02 µM |
| CCOc1cc(/C=N/NC(=O)C(=O)N/N=C/c2ccc(O)c(OCC)c2)ccc1O | > 100 µM (inactive) |
| Cc1cc(C(=O)N/N=C/c2cc(Br)ccc2O)n[nH]1 | 10.3 µM |
| CC(=NNC(=O)C(=O)NN=C(C)c1cccc(O)c1)c1cccc(O)c1 | > 100 µM (inactive) |
| COc1cc(OC)c(OC)cc1/C=N/NC(=O)C(=O)N/N=C/c1cc(OC)c(OC)cc1OC | > 100 µM (inactive) |
| COc1ccc(-c2csc(Nc3cccc4ccccc34)n2)cc1F | > 100 µM (inactive) |
| COc1ccc(OC)c(/C=N/NC(=O)C(=O)N/N=C/c2cc(OC)ccc2OC)c1 | 53.2 µM |
| O=C(N/N=C/c1c(O)ccc2ccccc12)c1cc(-c2cccs2)[nH]n1 | 31.8 µM |
| CC(=O)Nc1ccc(/C=N/NC(=O)C(=O)N/N=C/c2ccc(NC(C)=O)cc2)cc1 | > 100 µM (inactive) |
| O=C(NN=Cc1ccccc1)C(=O)NN=Cc1ccccc1 | 32.9 µM |
| Cc1cc(C(=O)NN=Cc2cccc([N+](=O)[O-])c2O)n[nH]1 | > 100 µM (inactive) |
| Cc1cc(C(=O)NN=Cc2cc(Cl)cc([N+](=O)[O-])c2O)n[nH]1 | > 100 µM (inactive) |
| CC1C(=O)NN=C1C(=O)NN=Cc1ccc(O)cc1O (stereo unspecified) | 10.3 µM |
| CCN(CC)c1ccc(/C=N/NC(=O)C(=O)N/N=C/c2ccc(N(CC)CC)cc2O)c(O)c1 | > 100 µM (inactive) |
| O=C(N/N=C/c1ccc(O)cc1)C(=O)N/N=C/c1ccc(O)cc1 | > 100 µM (inactive) |
| O=C(N/N=C/c1c(O)ccc2ccccc12)C(=O)N/N=C/c1c(O)ccc2ccccc12 | > 100 µM (inactive) |
| C/C(=N\NC(=O)c1cc(C)[nH]n1)c1ccc2ccccc2c1O | 8.16 µM |

| Compound | IC50 (inhibition of PLAP activity) |
| --- | --- |
| O=C(N/N=C/c1ccc2c(c1)OCO2)C(=O)N/N=C/c1ccc2c(c1)OCO2 | > 100 µM (inactive) |
| COc1cccc(C=NNC(=O)c2cc(-c3cccn3C)n[nH]2)c1O | 8.67 µM |
| O=C(N/N=C\c1ccc2c(c1)OCO2)C(=O)N/N=C/c1ccc2c(c1)OCO2 | > 100 µM (inactive) |
| CCOc1cccc(C=NNC(=O)c2cc(-c3cccn3C)n[nH]2)c1O | 9.86 µM |
| COc1cccc(C=NNC(=O)c2[nH]nc3c2CCc2ccccc2-3)c1O | 12.1 µM |
| COc1cc(/C=N\NC(=O)C(=O)N/N=C/c2cc(OC)c(O)c(OC)c2)cc(OC)c1O | > 100 µM (inactive) |
| C/C(=N\NC(=O)c1[nH]nc2c1CCc1ccccc1-2)c1ccccc1O | 7.57 µM |
| O=C(N/N=C\c1cccc(O)c1)C(=O)N/N=C/c1cccc(O)c1 | 56.1 µM |
| COc1cccc(C=NNC(=O)C(=O)NN=Cc2cccc(OC)c2O)c1O | 8.61 µM |
| CN(C)c1ccc(/C=N/NC(=O)C(=O)N/N=C/c2ccc(N(C)C)cc2)cc1 | > 100 µM (inactive) |
| O=C1Nc2ccc(Br)cc2C12NNc1ccccc1O2 (stereo unspecified) | 0.87 µM |
| Cc1ccc(-c2cc(C(=O)NN=Cc3ccccc3O)n[nH]2)o1 | 6.41 µM |
| O=C(CCN1C(=O)/C(=C/c2ccccc2Cl)SC1=S)NNC(=O)c1ccccc1O | 23.7 µM |
| COc1cc(/C=N/NC(=O)C(=O)N/N=C/c2ccc(O)c(OC)c2)ccc1O | 46.8 µM |
| COc1cc(OC)cc(C(=O)NNC(=O)c2nn(C)c(=O)c3ccccc23)c1 | 9.49 µM |
| COC(=O)c1ccc(/C=N/NC(=O)C(=O)N/N=C/c2ccc(C(=O)OC)cc2)cc1 | > 100 µM (inactive) |
| N#CCOc1ccccc1/C=N/NC(=O)C(=O)N/N=C/c1ccccc1OCC#N | > 100 µM (inactive) |
| CC(=O)Nc1cccc(C(=O)NNC(=O)c2n[nH]c(=O)c3ccccc23)c1 | 10.2 µM |
| O=C(NC(=S)NNC(=O)c1ccccc1O)c1ccc(F)cc1 | 11 µM |

| Compound | IC50 (inhibition of PLAP activity) |
| --- | --- |
| O=C(N/N=C/c1ccccc1O)c1cc(C2CC2)[nH]n1 | 8.62 µM |
| O=C(N/N=C/c1ccccc1O)c1n[nH]c2c1CCC2 | 8.33 µM |
| O=C(NN=Cc1c(O)ccc2ccccc12)c1[nH]ncc1Br | > 100 µM (inactive) |
| COc1cccc(C=NNC(=O)C(=O)NN=Cc2cccc(OC)c2OC)c1OC | 28.7 µM |
| O=C(NNC(=S)NC(=O)c1ccccc1[N+](=O)[O-])c1ccccc1O | 15 µM |
| OC(c1nc2ccc(F)cc2[nH]1)C(O)c1nc2ccc(F)cc2[nH]1 (stereo unspecified) | 6.83 µM |
| COc1ccc(/C=N/NC(=O)C(=O)N/N=C/c2ccc(OC)c(OC)c2)cc1OC | > 100 µM (inactive) |
| CC(C)Oc1ccccc1/C=N/NC(=O)C(=O)N/N=C/c1ccccc1OC(C)C | 52.3 µM |
| CCCCOc1ccc(/C=N/NC(=O)C(=O)N/N=C/c2ccc(OCCCC)cc2)cc1 | > 100 µM (inactive) |
| CC(C)C(=O)NC(=S)Nc1ccccc1C(=O)Nc1ccccc1 | 9.56 µM |
| O=C(N/N=C/c1cc(Br)ccc1O)C(=O)N/N=C/c1cc(Br)ccc1O | > 100 µM (inactive) |
| O=C(N/N=C/c1ccccc1C(=O)O)C(=O)N/N=C/c1ccccc1C(=O)O | 58.1 µM |
| Cn1cccc1-c1cc(C(=O)NN=Cc2cc(Br)ccc2O)[nH]n1 | 9.66 µM |
| Cc1cc(C(=O)N/N=C\c2cc(C(C)(C)C)ccc2O)n[nH]1 | 7.02 µM |
| COc1ccc(-c2cc(C(=O)NN=Cc3c(O)ccc4ccccc34)[nH]n2)cc1 | > 100 µM (inactive) |
| O=C(NN=Cc1ccc(O)cc1O)C(=O)NN=Cc1ccc(O)cc1O | > 100 µM (inactive) |
| COc1cc(/C=N/NC(=O)C(=O)N/N=C/c2cc(OC)c(OC)c(OC)c2)cc(OC)c1OC | > 100 µM (inactive) |
| O=C(N/N=C/c1cc(Br)ccc1O)c1cc(C2CC2)[nH]n1 | 11.5 µM |
